Reference: US9840498B2, “Substituted quinazolin-4-one derivatives” (NOVARTIS AG, priority 2013, dated 2017)

biological target: PI 3-Kinase Gamma (Homo sapiens (Human), UniProt P48736); assay: Cellular U937 AKT assay for PI 3-kinase gamma; assay type: cell-based; conditions: U937 cells, MIP1α-stimulated AKT phosphorylation, read-out: Cell PI3K gamma IC50
Procedure: The U937 monocyte cell line is maintained in a basal medium of RPMI 1640 supplemented with 10% heat inactivated FCS, 100 U/ml Penicillin, 100 ug/ml streptomycin and 2 mM L-glutamine (Invitrogen). U937 suspension culture is maintained by seeding cells at a density of 0.125×10^6 cells per ml in fresh medium every three or four days. Cells are incubated at 37° C., 5% CO2. […] Before beginning the cell manipulations described below, the MSD (Meso Scale Discovery) assay plate is blocked by addition of 150 ul/well blocking buffer supplied and incubated with shaking for a minimum of one hour at room temperature. All steps of the assay must be performed quickly, with accurately timed incubation periods and observing temperature controls where indicated. […] Falcon tube, counted and centrifuged for eight minutes at 300 g at room temperature. Supernatant is aspirated, the cell pellet resuspended and washed once in HBSS (Hank's Balanced Salt Solution) by centrifugation for eight minutes at 300 g at room temperature. The cell pellet is resuspended in HBSS to a concentration of 4×10^6 per ml, and 100 μL of cell suspension added to each well of a flat-bottomed 96-well tissue culture plate. Assay plates are incubated for 1.5 hours at 37° C., 5% CO2 to allow background AKT phosphorylation to reduce before the compound stimulation step. […] Compound concentrations at this stage are 4-times the final concentration required in the assay plate. Cells are stimulated with compound or HBSS 0.8% DMSO by direct transfer of 50 ul/well from the compound dilution plate. The assay plate containing compound-treated cells is then incubated for 30 minutes at 37° C. A standard plate layout is used for all experiments. Compound-treated cells, in addition to positive control wells (“max MIP1α”), are stimulated with 50 μL per well of 40 ng/ml MIP1α (R&D Systems catalogue number 270-LD, lyophilized stock reconstituted to 50 μg/ml with PBS 0.1% BSA). Negative control wells (“min HBSS”), are stimulated with 50 μl/well of HBSS in the absence of MIP1α. […] Cells are incubated with MIP1α for 3 minutes, at 37° C., 5% CO2. After the three minute stimulation period, the assay plate is kept ice cold at all times. Assay plates are centrifuged for 2 minutes at 300 g, 4° C. and supernatant is removed by gently inverting, and then blotting the plate on tissue. Cells are then washed by gentle addition of 150 μL/well of ice cold HBSS and centrifugation at 300 g, for 5 minutes at 4° C. Supernatant is aspirated and the plate blotted as described above. The plate is placed on ice and cells are immediately treated with 35 μL per well of ice cold lysis buffer, prepared according to the kit instructions (per assay plate, to 5 ml of Tris lysis buffer add 100 μl of 50× protease inhibitor solution and 50 μl of each 100× phosphatase inhibitor solutions I and II). Plates are incubated on ice for 20 minutes before centrifugation at 841 g for 5 minutes, 4° C. Block buffer is aspirated from the MSD plate, and the plate washed four times with 300 μl/well Tris wash buffer. 25 μL of cell lysate is then transferred from the assay plate to the washed MSD plate which is sealed and incubated at room temperature for one hour with shaking. The plate is washed four times with 300 μL per well of Tris wash buffer before addition of 25 μL per well of sulfo-tag anti-total AKT/pAKT detection antibody (60 μl of 50× antibody stock is diluted in 1 ml block buffer mixed with 2 ml wash buffer) and incubated at room temperature for one hour with shaking. The plate is washed four times with 300 μl per well of Tris wash buffer and 150 μl per well of Read buffer is added, taking care to avoid the introduction of bubbles. The plate is immediately read using an MSD SECTOR Imager 6000. Results are exported in Excel and the percentage of phosphorylated AKT is calculated using the equation: % Phosphoprotein=((2*Phospho signal)/(Phospho signal+Total signal))*100. […]

PI 3-Kinase Gamma, sequence (P48736 whole entry): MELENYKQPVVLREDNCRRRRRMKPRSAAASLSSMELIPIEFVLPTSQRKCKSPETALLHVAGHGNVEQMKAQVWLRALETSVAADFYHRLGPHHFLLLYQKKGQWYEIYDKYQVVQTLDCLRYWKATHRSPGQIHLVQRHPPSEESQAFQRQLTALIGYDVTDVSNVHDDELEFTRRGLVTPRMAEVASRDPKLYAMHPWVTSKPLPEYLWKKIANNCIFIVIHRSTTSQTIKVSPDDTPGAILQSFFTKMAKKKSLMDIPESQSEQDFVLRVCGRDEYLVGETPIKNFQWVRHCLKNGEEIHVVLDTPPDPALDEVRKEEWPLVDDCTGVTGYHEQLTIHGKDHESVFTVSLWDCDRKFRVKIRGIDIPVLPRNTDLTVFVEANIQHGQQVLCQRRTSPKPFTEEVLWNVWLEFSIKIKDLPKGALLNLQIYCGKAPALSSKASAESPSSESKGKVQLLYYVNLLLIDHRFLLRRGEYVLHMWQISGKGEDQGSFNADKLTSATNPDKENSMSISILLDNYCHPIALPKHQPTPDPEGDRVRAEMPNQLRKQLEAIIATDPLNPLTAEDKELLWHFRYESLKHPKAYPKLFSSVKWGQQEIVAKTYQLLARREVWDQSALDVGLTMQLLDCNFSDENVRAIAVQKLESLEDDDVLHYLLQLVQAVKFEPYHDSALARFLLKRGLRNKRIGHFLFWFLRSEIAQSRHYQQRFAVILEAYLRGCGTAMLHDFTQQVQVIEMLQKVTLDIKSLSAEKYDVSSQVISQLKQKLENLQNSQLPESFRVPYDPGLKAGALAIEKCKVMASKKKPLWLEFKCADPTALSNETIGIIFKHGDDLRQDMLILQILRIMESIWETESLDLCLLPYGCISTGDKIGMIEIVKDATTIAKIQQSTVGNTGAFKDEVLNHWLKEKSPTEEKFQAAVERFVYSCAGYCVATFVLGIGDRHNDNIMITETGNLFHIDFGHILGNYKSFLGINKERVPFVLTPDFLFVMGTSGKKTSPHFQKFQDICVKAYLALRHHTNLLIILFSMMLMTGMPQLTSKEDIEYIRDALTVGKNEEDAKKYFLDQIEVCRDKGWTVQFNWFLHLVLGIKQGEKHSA

| Compound | IC50 [nM] |
| --- | --- |
| COc1ncc(-c2cccc3nc([C@@H]4CCCN4c4ncnc(N)c4C#N)n(-c4ccccc4)c(=O)c23)cn1 [Example 3, (S)-4-Amino-6-(2-(5-(2-methoxypyrimidin-5-yl)-4-oxo-3-phenyl-3,4-dihydroquinazolin-2-yl)pyrrolidin-1-yl)pyrimidine-5-carbonitrile] | 430 |
| Cn1cc(-c2c(F)ccc3nc([C@@H]4CCCN4c4ncnc(N)c4C#N)n(-c4ccccc4)c(=O)c23)cn1 [Example 5, (S)-4-Amino-6-(2-(6-fluoro-5-(1-methyl-1H-pyrazol-4-yl)-4-oxo-3-phenyl-3,4-dihydroquinazolin-2-yl)pyrrolidin-1-yl)pyrimidine-5-carbonitrile] | 220 |
| COc1ncc(-c2c(F)ccc3nc([C@@H]4C[C@H](O)CN4c4nc(N)nc(C)c4C#N)n(-c4ccccc4)c(=O)c23)s1 [Example 9, 2-Amino-4-((2S,4S)-2-(6-fluoro-5-(2-methoxythiazol-5-yl)-4-oxo-3-phenyl-3,4-dihydroquinazolin-2-yl)-4-hydroxypyrrolidin-1-yl)-6-methylpyrimidine-5-carbonitrile] | 56 |
| CO[C@H]1C[C@@H](c2nc3cccc(-c4cnn(C)c4)c3c(=O)n2-c2ccccc2)N(c2nc(N)nc3[nH]cnc23)C1 [Example 11, 2-((2S,4S)-1-(2-Amino-9H-purin-6-yl)-4-methoxypyrrolidin-2-yl)-5-(1-methyl-1H-pyrazol-4-yl)-3-phenylquinazolin-4(3H)-one] | 340 |

Stronger by IC50, values ahead:

| IC50 [nM] | Compound |
| --- | --- |
| 32 | Cc1nc(N)nc(N2C[C@@H](O)C[C@H]2c2nc3ccc(F)c(-c4cnn(C)c4)c3c(=O)n2-c2ccccc2)c1C#N [Example 1, 2-Amino-4-((2S,4S)-2-(6-fluoro-5-(1-methyl-1H-pyrazol-4-yl)-4-oxo-3-phenyl-3,4-dihydroquinazolin-2-yl)-4-hydroxypyrrolidin-1-yl)-6-methylpyrimidine-5-carbonitrile] |
| 40 | COc1ncc(-c2cccc3nc([C@@H]4CCCN4c4nc(N)nc(C)c4C#N)n(-c4ccccc4)c(=O)c23)cn1 [Example 4, (S)-2-Amino-4-(2-(5-(2-methoxypyrimidin-5-yl)-4-oxo-3-phenyl-3,4-dihydroquinazolin-2-yl)pyrrolidin-1-yl)-6-methylpyrimidine-5-carbonitrile] |
| 41 | Cc1nc(N)nc(N2CCC[C@H]2c2nc3ccc(F)c(-c4cnn(C)c4)c3c(=O)n2-c2ccccc2)c1C#N [Example 6, (S)-2-Amino-4-(2-(6-fluoro-5-(1-methyl-1H-pyrazol-4-yl)-4-oxo-3-phenyl-3,4-dihydroquinazolin-2-yl)pyrrolidin-1-yl)-6-methylpyrimidine-5-carbonitrile] |
| 25 | COc1ncc(-c2c(F)ccc3nc([C@@H]4C[C@H](O)CN4c4nc(N)nc(C)c4C#N)n(-c4ccccc4)c(=O)c23)cn1 [Example 7, 2-Amino-4-((2S,4S)-2-(6-fluoro-5-(2-methoxypyrimidin-5-yl)-4-oxo-3-phenyl-3,4-dihydroquinazolin-2-yl)-4-hydroxypyrrolidin-1-yl)-6-methylpyrimidine-5-carbonitrile] |
| 29 | Cn1cc(-c2c(F)ccc3nc([C@@H]4C[C@H](O)CN4c4ncnc(N)c4C#N)n(-c4ccccc4)c(=O)c23)cn1 [Example 8, 4-Amino-6-((2S,4S)-2-(6-fluoro-5-(1-methyl-1H-pyrazol-4-yl)-4-oxo-3-phenyl-3,4-dihydroquinazolin-2-yl)-4-hydroxypyrrolidin-1-yl) pyrimidine-5-carbonitrile] |
| 38 | CO[C@H]1C[C@@H](c2nc3cccc(-c4cnn(C)c4)c3c(=O)n2-c2ccccc2)N(c2nc(N)nc(C)c2C#N)C1 [Example 10, 2-Amino-4-((2S,4S)-4-methoxy-2-(5-(1-methyl-1H-pyrazol-4-yl)-4-oxo-3-phenyl-3,4-dihydroquinazolin-2-yl)pyrrolidin-1-yl)-6-methylpyrimidine-5-carbonitrile] |
